From ChEMBL document CHEMBL1156403, “A new dimeric dihydrochalcone and a new prenylated flavone from the bud covers of Artocarpus altilis: potent inhibitors of cathepsin K” (J Nat Prod, 2002)

Target: T1, Cathepsin K (Homo sapiens, UniProt P43235)
T1 sequence (P43235 whole entry): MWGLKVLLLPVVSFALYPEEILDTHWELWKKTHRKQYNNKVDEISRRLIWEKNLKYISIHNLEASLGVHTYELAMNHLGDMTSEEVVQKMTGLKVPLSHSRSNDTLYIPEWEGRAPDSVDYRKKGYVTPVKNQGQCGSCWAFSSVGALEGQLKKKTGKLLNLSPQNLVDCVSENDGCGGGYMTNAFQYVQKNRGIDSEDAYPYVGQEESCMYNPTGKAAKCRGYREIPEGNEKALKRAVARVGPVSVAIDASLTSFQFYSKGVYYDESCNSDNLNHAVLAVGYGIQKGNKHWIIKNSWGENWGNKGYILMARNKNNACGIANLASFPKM
Assay: Inhibition of cathepsin K by fluorimetric assay

| Structure (SMILES) | IC50 [nM] |
| --- | --- |
| CC(C)=CCCC1(C)C=Cc2c(cc(O)c3c2OC(c2ccc(O)cc2)CC3=O)O1 (stereo not drawn) [CYCLOALTILISIN 7] | 840 |
| CC(C)=CCC/C(C)=C/Cc1c(CCC(=O)c2ccc(O)cc2O)cc(-c2cc(O)c(O)c(C/C=C(\C)CCC=C(C)C)c2CCC(=O)c2ccc(O)cc2O)c(O)c1O [CYCLOALTILISIN 6] | 98 |
| CC(C)=CCC/C(C)=C/Cc1c(CCC(=O)c2ccc(O)cc2O)ccc(O)c1O | 170 |
